Source: PMC5460604 (Chemical Science, 2016)
Like-named read-outs stand apart in the source and are kept apart here. Values belong to the compound of their own block, whether it stands above or below them.

Assays:
[1] = system: ER-BC (Bcoa0725); details: NADH, anaerobic
[2] = target: T1, ER-MT (Neomoorella thermoacetica, UniProt O52935); assay: whole-cell biotransformation, LC-MS; type: cell-based; details: 0.7 mM substrate; E. coli expressing ER
T1 sequence (O52935 1-667): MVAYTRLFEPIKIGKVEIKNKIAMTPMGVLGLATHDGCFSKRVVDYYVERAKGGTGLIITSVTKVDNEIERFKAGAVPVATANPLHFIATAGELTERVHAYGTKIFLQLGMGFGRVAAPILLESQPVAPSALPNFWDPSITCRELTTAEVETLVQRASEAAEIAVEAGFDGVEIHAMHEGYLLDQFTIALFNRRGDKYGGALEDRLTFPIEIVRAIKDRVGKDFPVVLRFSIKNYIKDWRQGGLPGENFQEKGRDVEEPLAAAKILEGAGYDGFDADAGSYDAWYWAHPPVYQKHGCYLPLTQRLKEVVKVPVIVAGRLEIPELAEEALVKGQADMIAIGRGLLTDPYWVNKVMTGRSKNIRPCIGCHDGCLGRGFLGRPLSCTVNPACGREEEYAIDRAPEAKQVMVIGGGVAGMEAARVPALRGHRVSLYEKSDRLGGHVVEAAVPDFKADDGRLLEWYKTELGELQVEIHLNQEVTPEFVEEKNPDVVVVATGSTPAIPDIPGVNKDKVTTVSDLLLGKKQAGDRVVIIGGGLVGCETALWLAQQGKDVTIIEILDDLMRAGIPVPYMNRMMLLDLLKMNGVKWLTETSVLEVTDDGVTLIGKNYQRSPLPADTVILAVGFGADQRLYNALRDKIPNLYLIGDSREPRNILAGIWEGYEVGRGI

Km ([1]; 14% isopropanol, sigmoidal kinetics): 18.9 mM
Compound: O=C(O)C=CCCC(=O)O (mixture of isomers) [compound 5, 2-hexenedioic acid]

Compound: O=C(O)/C=C/C=C/C(=O)O [trans,trans-muconic acid]
whole-cell biotransformation, LC-MS [2]: the ER-BC, ER-CA and ER-MT strains hydrogenated both isomers to adipic acid

Km ([1]; substrate inhibition): 0.68 mM
Compound: O=C(O)/C=C/c1ccccc1 [compound 4, trans-cinnamic acid]
